In assay [1] the test system is RKO colon adenocarcinoma cells. Nature of the assay: MTT assay, RKO. The assay is classed as cell-based, human. Here is the method: (§1) Compounds are tested for their ability to inhibit cell proliferation and cell viability. The metabolic conversion of 3-(4,5-dimethylthiazol-2-yl)-2,5-diphenyltetrazolium bromide (MTT, Sigma #M2128) to a reduced form is a commonly used measure of cellular viability. Following is the procedure:
(§2) Cells are maintained in 75 cm^2 tissue culture flasks until ready for use. The cells are grown and plated for the assay in Dulbecco's modified Eagle's media (DMEM) containing 10% fetal bovine serum. For example, the following cell lines can be used: a) human foreskin fibroblasts (HFF); b) HT29 (human colon carcinoma cell line); c)MDA-MB-468 (human breast carcinoma cell line); d) RKO (human colon adenocarcinoma cell line); e) SW620 (human colon carcinoma cell line); f) A549 (human lung carcinoma cell line); and g) MIA PACA (human pancreatic carcinoma cell line). Cells are maintained at 37° C. in 10% CO2, 90% humidified air. Cells are plated in 96-well tissue culture plates at the densities listed below. 100 μL of cell suspension is added to each well of the 96-well plate except the top row of the plate which contains no cells and serves as a reference for the spectrophotometer.
Cells are incubated overnight in DMEM containing 10% fetal bovine serum at 37° C. in 10% CO2, 90% humidified air prior to dosing. […] Compounds with solubilities of less than 30 μM are dosed at the highest soluble concentration. Stock solutions of compounds are made in 100% dimethyl sulfoxide (DMSO). Stock solutions are diluted in DMEM containing 100 μg/ml gentamicin and 0.3 to 0.6% DMSO at the twice the highest concentration to be placed on the cells. If compounds have been dissolved in DMSO the final concentration of DMSO on the cells is kept below 0.3%. Three-fold serial dilutions are performed on each compound to prepare 10 concentrations of the compound for dosing. 100 μl of diluted compound is added to the 100 μl of media currently on the dish. For each concentration of compound, 2-4 replicate wells are prepared.
Cells are returned to incubator and allowed to proliferate in the presence of compound for 72 h before addition of MTT. MTT is prepared in phosphate buffered saline (Irvine Scientific #9240) at a concentration of 2 mg/ml. 50 μl per well of MTT solution is added to the 200 μl of media to yield a final concentration of 0.4 mg/ml and plates are returned to the incubator for 4 h. After 4 h incubation the media, compound and MTT mixture is aspirated from the plates and 100 μl of 100% DMSO is added to each well in addition to 25 μl of Sorenson's Buffer (0.1M glycine, 0.1M NaCl, pH 10.5). Quantitation of metabolic reduction of MTT in each plate is performed by reading optical density at 570 nm wavelength on a Molecular Devices UVmax microplate reader. Growth inhibition curves and 50% inhibitory concentrations are determined using Microsoft Excel.
(§3) HDF are normal diploid fibroblast cells. RKO are colon adenocarcinoma cells and MES/SA are […].

For assay [2], the target named is CDK2 (Homo sapiens, UniProt P24941). As to the kind of experiment: Cyclin dependent protein kinase substrate phosphorylation assay, CDK2. The assay is classed as biochemical.
Experimental: CDK1 and CDK2 were both expressed utilizing a baculovirus expression system and were partially purified to comprise 20-80% of total protein, with no detectable competing reactions present. […] Reactions were terminated with 0.2-2 volumes of either 20% acetic acid or 50-100 mM EDTA buffered to pH 7 (substrate consumption<20%). The buffer employed in enzyme assays was either 30 mM HEPES 7.4 containing 0.15 M NaCl and 5% DMSO, the buffer 50 mM MOPS 7.0 containing 0.15 M NaCl and 5% DMSO, or the buffer 100 mM HEPES pH 7.5 containing 0.1 mg /mL BSA and 5% DMSO. Inhibitors were diluted in 100% DMSO prior to addition into the assay. Detection of peptide phosphorylation was accomplished by scintillation counting following either collection of peptide onto phosphocellulose filters (for reactions stopped with acetic acid), collection of peptide in wells of 96 well plates coated with Streptavidin (Pierce) (reactions were stopped with EDTA), or addition of Avidin coated Scintillant impregnated beads (Scintillation Proximity Assays from Amersham, reactions were stopped with EDTA).
Assay [3] concerns the target cSrc (Homo sapiens, UniProt P12931). As to the kind of experiment: Src peptide phosphorylation assay (Elisa or isotope based). The assay is classed as biochemical. Here is the method:
The peptide substrates used in Src and Lck assays were biotin-aminohexyl-EEIYGEF-NH2 (Src) and biotin-aminohexyl-[…]-NH2 (Lck). The src and Ick proteins were purified to homogeneity from a baculovirus expression system and preactivated before adding to assay mixtures. The maximum activation was achieved by incubating concentrated enzyme (10-30 mM) on ice for 40 min in the presence of 1 mM ATP and 10 mM MgCl2 in 100 mM HEPES, pH 7.5. The activated enzyme was diluted to 2 nM into a 50-mL reaction mixture containing 100 mM HEPES, pH 7.5. 5 mM ATP, 10 mM MgCl2, 2 mM peptide, 0.05 mg/mL BSA, and an inhibitor at varying concentrations and with or without 8 mCi/mL [γ-^33P]ATP dependent upon the method of analysis for the extent of reaction. The controls were reactions in the presence (negative controls) or absence (positive controls) of 50 mM EDTA. Reactions were allowed to proceed for 30 min at room temperature and quenched with addition of EDTA to 50 mM in 220 mL. The extent of reactions was analyzed in one of the two ways: an Elisa-based and a radioactive isotope-based. The quenched samples (200 mL) were transferred to a neutravidin coated plate (Perice) and incubated at room temperature for 40 min to allow biotinylated peptide to bind to neutravidin. The unbound peptide and the rest of the solution was washed away using a plate washer. In the Elisa format, a 200 mL HRP-PY20 anti phosphotyrosine antibody conjugate solution was added. After incubation for about 30 min, the plated was washed to remove unbound antibody-HRP conjugate. An Elisa substrate, K-blue (Neogen), was added and the Elisa reaction quenched with Red-stop (Neogen) after 15 min. The plate was read at A625 in a plate reader. In the isotope-based format, the reactions had been performed in the presence of [γ-^33P]ATP. 200 mL Scintiverce DB was added to each well of the plate with bound biotin-peptide. The plate was sealed and counted in a micro-b-counter (Wallac). IC50 values were obtained by fitting raw data to A625 (cpm)=Vmax*(1−([l]/(IC50+[l])))+b, where b is background.

The subject of assay [4] is HDF normal diploid fibroblast cells. As to the kind of experiment: MTT assay, HDF. The assay is classed as cell-based, human. As to conditions: Homo sapiens, Fibroblast, 72 h, read-out: MTT HDF IC50. How it is done:
as §1
as §2, with “100 μL of cell suspension is added to each well of the 96-well plate except the top row of the plate which contains no cells and serves as a reference for the spectrophotometer.” left out
Cells are returned to incubator and allowed to proliferate in the presence of compound for 72 h before addition of MTT. […] Quantitation of metabolic reduction of MTT in each plate is performed by reading optical density at 570 nm wavelength on a Molecular Devices UVmax microplate reader. Growth inhibition curves and 50% inhibitory concentrations are determined using Microsoft Excel. […]
In general terms: Tetrazolium dyes change colour on reduction, which living cells bring about.

Assay [5] has the same test system. Nature of the assay: FACS assay (cell death by flow cytometry), HDF. The assay is classed as cell-based, human. As to conditions: Homo sapiens, Fibroblast, 72 h, read-out: FACS HDF IC50. How it is done:
These assays allow determination of both cell death and changes in cell cycle profile in cells following treatment of the compound. The assay is performend as follows:
1. Cells are incubated in DMEM to which 10% FCS has been added in a humidified incubator at 37° C. and 5% by volume of CO2 in air. The cells are innoculated in 6-well plates at a density of 0.5-5×10^5 cells per well.
2. The test compound is added in serial dilutions 24-36 h after plating in 0.5% DMSO. The plates are then incubated a further 72 h in the presence of the compound. During this time, cells in control cultures undergo at least three cell divisions.
3. After incubation, the media is collected and cells are harvested by trypsinization. The cells and media are pooled and pelleted by centrifugation.
4. The cell pellet is fixed in a final volume of 3 mL of 50% ice cold MeOH and incubated for a minimum of 30 min at −20° C.
5. The cells are pelleted by centrifugation and resuspended in 0.5 mL PBS containing 1%FCS, […] Propidium Iodide (PI) and 5 mg/mL RNase A and incubated 30 min at 37° C. in the dark.
6. The samples are analysed by flow cytometry using the relative incorporation of PI as a measure of DNA content of each cell. The % Dead cells is recorded as % of events with less than 2N DNA.
as §3

Setting [6] is: Homo sapiens, 72 h; read-out: MTT RKO IC50.
The mark [7] stands for this setting: Homo sapiens, 72 h, read-out: MTT RKO IC50.

The structures appear in SMILES notation. Read-outs that look alike come from different tables or passages of the source.

cSrc, sequence (P12931 whole entry, species assumed): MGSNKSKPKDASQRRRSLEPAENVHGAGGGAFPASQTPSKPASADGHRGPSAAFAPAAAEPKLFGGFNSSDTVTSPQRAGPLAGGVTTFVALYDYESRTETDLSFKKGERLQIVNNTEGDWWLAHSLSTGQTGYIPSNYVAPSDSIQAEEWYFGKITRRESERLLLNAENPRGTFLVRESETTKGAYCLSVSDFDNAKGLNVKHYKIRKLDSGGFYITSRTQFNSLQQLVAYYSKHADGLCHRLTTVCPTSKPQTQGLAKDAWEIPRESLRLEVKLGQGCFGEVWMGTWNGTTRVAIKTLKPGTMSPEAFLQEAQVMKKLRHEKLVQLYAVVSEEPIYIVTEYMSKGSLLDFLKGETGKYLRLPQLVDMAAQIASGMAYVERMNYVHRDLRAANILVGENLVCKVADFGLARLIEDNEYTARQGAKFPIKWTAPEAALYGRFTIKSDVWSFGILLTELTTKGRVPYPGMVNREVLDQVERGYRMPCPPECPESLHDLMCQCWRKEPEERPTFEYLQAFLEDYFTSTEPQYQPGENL

By IC50 is commonly meant the concentration that inhibits the measured activity by half. `CC(C)(CO)CNS(=O)(=O)c1ccc(NC=C2C(=O)Nc3ccc4ncsc4c32)cc1` [Example 77, N-(3-Hydroxy-2,2-dimethyl-propyl)-4-[(7-oxo-6,7-dihydro-1-thia-3,6-diaza-as-indacen-8-ylidenemethyl)-amino]-benzenesulfonamide]: in assay [1] (setting [6]), the IC50 fell in the range of 1100 to 5000 nM.

Regarding `CS(=O)(=O)Cc1ccc(NC=C2C(=O)Nc3ccc4ncsc4c32)cc1` [Example 76, 8-(4-Methylsulfonylmethyl-phenylamino-methylene)-6,8-dihydro-1-thia-3,6-diaza-as-indacen-7-one], the IC50 in assay [2] was 11 to 50 nM; in assay [3] it was greater than 100 nM; in assay [1] (setting [6]), greater than 5000 nM.

With `O=C1Nc2ccc3ncsc3c2C1=CNc1ccc(S(=O)(=O)Nc2ccccn2)cc1` [Example 72, 4-[(7-Oxo-6,7-dihydro-1-thia-3,6-diaza-as-indacen-8-ylidenemethyl)-amino]-N-pyridin-2-yl-benzenesulfonamide], the IC50 is greater than 5000 nM in assay [4], greater than 5000 nM in assay [5], greater than 100 nM in assay [3] and 1100 to 5000 nM in assay [1] (setting [7]).

With `CNS(=O)(=O)Cc1ccc(NN=C2C(=O)Nc3ccc4ncccc4c32)cc1` [Example 68, N-Methyl-C-{4-[N′-(2-oxo-2,3-dihydro-pyrrolo[3,2-f]quinolin-1-ylidene)-hydrazino]-phenyl}-methanesulfonamide], the IC50 in assay [2] is 1 to 10 nM; in assay [1] (setting [7]) it was greater than 5000 nM.

As to `CNS(=O)(=O)Cc1ccc(NN=C2C(=O)Nc3cc(C)c(O)c(C)c32)cc1` [Example 99], the IC50 was greater than 100 nM in assay [3] and 100 to 500 nM in assay [1] (setting [6]).

The record behind these values is US6541503B2, “Substituted oxindole derivatives as protein tyrosine kinase and as protein serine/threonine kinase inhibitors” (SmithKline Beecham Corporation, priority 1997, dated 2003).
